In patent US5200429A, “Acne vulgaris treating” (Takasago International Corporation, priority 1990, dated 1993):
Values after ≈ are worked out from the molar mass of the structure shown. Where two headings read alike, the source gives them in different places.

Columns and labels:
[1] = system: Propionibacterium acnes (ATCC 11827); test: Minimum inhibitory concentration (MIC) against Propionibacterium acnes (Test Example 1); assay type: cell-based
Experimental: The minimum inhibitory concentration (MIC) of caryophyllene, cedrene, longifolene, and thujopsene obtained in Preparation Example against Propionibacterium acnes (ATCC 11827) was determined as follows.
The test compound was added to a 4.6% ABCM bouillon aqueous solution (prepared by dissolving 46 g of an ABCM bouillon medium produced by Eiken Kagaku K. K. in 1 l of distilled water) in a concentration of 100 μg/ml, and the solution was stepwise diluted two times with the same medium, followed by sterilization.
A 5 ml aliquot of the solution was put in a test tube and inoculated with 0.1 ml of the culture of Propionibacterium acnes which had been preliminarily cultured so as to have a cell density of 5×10^8 cells/ml. The system was static-cultured under anaerobic conditions at 37° C. for 48 hours, and the turbidity of the cultured system was measured at a wavelength of 600 nm to obtain MIC (μg/ml).

[2] = system: several fungi; conditions: Indian Perfumer, 28(2), 82-87 (1984); cited from earlier work
[3] = system: Escherichia coli; conditions: Indian Perfumer, 28(2), 82-87 (1984); cited from earlier work
[4] = system: skin; conditions: conventional use in acne vulgaris; cited from earlier work
[5] = system: various molds; conditions: J. Antibact. Antifung. Agents, 8(1), 3-6 (1980); cited from earlier work
[6] = system: Bacillus subtilis; conditions: J. Antibact. Antifung. Agents, 8(1), 3-6 (1980); cited from earlier work
[7] = system: Escherichia coli; conditions: J. Antibact. Antifung. Agents, 8(1), 3-6 (1980); cited from earlier work
[8] = system: Pseudomonas aeruginosa; conditions: J. Antibact. Antifung. Agents, 8(1), 3-6 (1980); cited from earlier work
[9] = Cutibacterium acnes, ATCC11827, anaerobic, 37° C., 48 hours, turbidity at 600 nm, read-out: MIC

Molecule | antimicrobial activity [2] | antimicrobial activity [3] | MIC [1, 9] | other results
C=C1CC/C=C(/C)CC[C@@H]2[C@@H]1CC2(C)C [Caryophyllene] | no activity | no activity | – | MIC ([1]; Cutibacterium acnes, ATCC11827, 48 h): 3.13 µg/mL (≈ 15.3 µM)
[H]/N=C(\N/C(=N/[H])NCCCCCCNC(=N)NC(=N)Nc1ccc(Cl)cc1)Nc1ccc(Cl)cc1 [Chlorhexidine Gluconate] | – | – | – | side effects [4]: side effects of causing erythema or exfoliation, causing extreme skin roughening and skin irritation
C=CCc1ccc(O)c(OC)c1 [Eugenol, reference compound] | strong antimicrobial activity | strong antimicrobial activity | 50 µg/mL (≈ 304 µM) | –
C=C1[C@H]2CC[C@@H]3[C@H]2C(C)(C)CCC[C@]13C [Longifolene] | – | – | 1.57 µg/mL (≈ 7.68 µM) | –
CC1=CC[C@]2(C)CCCC(C)(C)[C@@]23C[C@@H]13 [Thujopsene] | – | – | 6.25 µg/mL (≈ 30.6 µM) | antimicrobial activity [5]: any substantial antimicrobial activity on various molds, Bacillus subtilis, Escherichia coli, and Pseudomonas aeruginosa was not exhibited; antimicrobial activity [6]: any substantial antimicrobial activity on various molds, Bacillus subtilis, Escherichia coli, and Pseudomonas aeruginosa was not exhibited; antimicrobial activity [7]: any substantial antimicrobial activity on various molds, Bacillus subtilis, Escherichia coli, and Pseudomonas aeruginosa was not exhibited; antimicrobial activity [8]: any substantial antimicrobial activity on various molds, Bacillus subtilis, Escherichia coli, and Pseudomonas aeruginosa was not exhibited
Cedrene | – | – | – | MIC ([1]; anaerobic, 37° C., 48 hours, turbidity at 600 nm): 1.57 µg/mL
